Data reported in patent publication US20250223268A1, “4-Methylsulfonylbenzamide Compound, Preparation Method, Herbicidal Composition And Use” (Jiangsu Flag Chemical Industry Co., Ltd., priority 2022, published 2025).

Legend:
Assay in all cases: Greenhouse herbicidal activity assay, post-emergence
Type in all cases: in vivo
[1] = tested on: Eclipta prostrata; details: Post-emergence test, rate 150 g a.i./hm^2, grade by fresh weight inhibition rate; for pest or weed control at 150 g/ha: Eclipta prostrata, read-out: Control efficacy grade, Eclipta prostrata
Text: (§1) Post-emergence: Seeds of gramineous weeds (Echinochloa crusgalli, Echinochloa crusgalli var. zelayensis, Echinochloa phyllopogon, Eleusine indica, Digitaria sanguinalis, Leptochloa chinensis, Setaria viridis, Alopecurus japonicus Steud, Beckmannia syzigachne, Polypogon fugax, Alopecurus aequalis, Lolium multiflorum, Poa annua, Aegilops tataschii, Avena fatua, Alopecurus myosuroides, Bromus japonicus), broadleaf weeds (Eclipta prostrata, Amaranthus retroflexus, Rorippa indica, Myosoton aquaticum, Veronica didyma, Galium aparine, Solanum nigrum, Xanthium sibiricum, Conyza canadensis, Sesbania cannabina, Sagittaria trifolia), and Cyperus iria (Cyperus iria, Scirpus juncoides, Cyperus difformis, etc.) were sown in plastic pots (7 cm diameter) with nutrient soil and bottom holes. Crop seeds (including Oryza sativa subsp. indica, Oryza sativa subsp. japonica, Oryza sativa L. var. Glutinosa matsum, Triticum aestivum, Zea mays, Sorghum bicolor, Setaria italica, Glycine max, Gossypium hirsutum, Brassica napus, Arachis hypogaea) were sown in plastic pots (10 cm diameter) with nutrient soil and bottom holes. After sowing, the pots were placed in the growth chamber until the plants reached the 3-6 leaf stage for foliar spraying. Post-treatment, the materials were air-dried naturally and returned to the growth chamber. Results were assessed 14-21 days later.
(§2) • A: Fresh weight inhibition rate≥80% to 100%; • B: Fresh weight inhibition rate[…] to <80%; • C: Fresh weight inhibition rate≥40% to <60%; • D: Fresh weight inhibition rate≥20% to <40%; • E: Fresh weight inhibition rate<20%; • NT: Not tested.

[2] = tested on: Leptochloa chinensis; details: Post-emergence test, rate 150 g a.i./hm^2; grade by fresh weight inhibition rate
Text: as §1, §2

[3] = tested on: Cyperus iria; details: Post-emergence test, rate 150 g a.i./hm^2, grade by fresh weight inhibition rate; for pest or weed control at 150 g/ha: Cyperus iria, read-out: Control efficacy grade, Cyperus iria
Text: as §1, §2

[4] = tested on: Echinochloa crusgalli; details: Post-emergence test, rate 150 g a.i./hm^2; grade by fresh weight inhibition rate
Text: as §1, §2

In the case of CCCS(=O)(=O)c1c(S(C)(=O)=O)ccc(C(=O)N(C)c2nnnn2C)c1Cl [Compound 1-101], the “Control efficacy grade, Eclipta prostrata” value [1] is reported as “A (Fresh weight inhibition rate≥80% to 100%)” and the “Control efficacy grade, Leptochloa chinensis” value [2] is reported as “B (Fresh weight inhibition rate≥260% to <80%)”.

With CCc1nnc(N(C)C(=O)c2ccc(S(C)(=O)=O)c([S+]([O-])C3CC3)c2Cl)o1 (racemic) [Compound 3-813] the “Control efficacy grade, Eclipta prostrata” value [1] was “A (Fresh weight inhibition rate≥80% to 100%)”, the “Control efficacy grade, Cyperus iria” value [3] was “B (Fresh weight inhibition rate≥260% to <80%)” and the “Control efficacy grade, Leptochloa chinensis” value [2] was “B (Fresh weight inhibition rate≥260% to <80%)”.

C=CC[S+]([O-])c1c(S(C)(=O)=O)ccc(C(=O)Nc2nnc(C(C)C)o2)c1Cl (racemic) [Compound 3-571] was tested, and the “Control efficacy grade, Eclipta prostrata” value [1] was “A (Fresh weight inhibition rate≥80% to 100%)” and the “Control efficacy grade, Cyperus iria” value [3] was “A (Fresh weight inhibition rate≥80% to 100%)”.

Cn1ncnc1NC(=O)c1ccc(S(C)(=O)=O)c(SC2CCCC2)c1Cl [Compound 2-42] was tested, and the “Control efficacy grade, Eclipta prostrata” value [1] was “A (Fresh weight inhibition rate≥80% to 100%)”, the “Control efficacy grade, Cyperus iria” value [3] was “A (Fresh weight inhibition rate≥80% to 100%)” and the “Control efficacy grade, Leptochloa chinensis” value [2] was “A (Fresh weight inhibition rate≥80% to 100%)”.

With Cc1nnc(N(C)C(=O)c2ccc(S(C)(=O)=O)c([S+]([O-])CCCl)c2Cl)o1 (racemic) [Compound 3-835] the “Control efficacy grade, Echinochloa crusgalli” value [4] was “A (Fresh weight inhibition rate≥80% to 100%)”.

In the case of CC(C)[S+]([O-])c1c(S(C)(=O)=O)ccc(C(=O)N(C)c2nnc(C3CC3)o2)c1Cl (racemic) [Compound 3-809], the “Control efficacy grade, Echinochloa crusgalli” value [4] is reported as “B (Fresh weight inhibition rate≥260% to <80%)”.

For CCCCSc1c(S(C)(=O)=O)ccc(C(=O)Nc2nnc(CC)o2)c1Cl [Compound 3-393], the “Control efficacy grade, Cyperus iria” value [3] was “A (Fresh weight inhibition rate≥80% to 100%)” and the “Control efficacy grade, Leptochloa chinensis” value [2] was “B (Fresh weight inhibition rate≥260% to <80%)”.

In the case of CC(C)CS(=O)(=O)c1c(S(C)(=O)=O)ccc(C(=O)Nc2nnco2)c1Cl [Compound 3-297], the “Control efficacy grade, Eclipta prostrata” value [1] is reported as “A (Fresh weight inhibition rate≥80% to 100%)”, the “Control efficacy grade, Cyperus iria” value [3] is reported as “A (Fresh weight inhibition rate≥80% to 100%)” and the “Control efficacy grade, Leptochloa chinensis” value [2] is reported as “B (Fresh weight inhibition rate≥260% to <80%)”.

CCC(C)[S+]([O-])c1c(S(C)(=O)=O)ccc(C(=O)Nc2nnc(C(C)C)o2)c1Cl (mixture of isomers) [Compound 3-517] was tested, and the “Control efficacy grade, Eclipta prostrata” value [1] was “A (Fresh weight inhibition rate≥80% to 100%)”, the “Control efficacy grade, Cyperus iria” value [3] was “B (Fresh weight inhibition rate≥260% to <80%)” and the “Control efficacy grade, Leptochloa chinensis” value [2] was “A (Fresh weight inhibition rate≥80% to 100%)”.

For CCC(C)Sc1c(S(C)(=O)=O)ccc(C(=O)Nc2ncnn2C)c1Cl (racemic) [Compound 2-16], the “Control efficacy grade, Eclipta prostrata” value [1] was “A (Fresh weight inhibition rate≥80% to 100%)”, the “Control efficacy grade, Cyperus iria” value [3] was “A (Fresh weight inhibition rate≥80% to 100%)” and the “Control efficacy grade, Leptochloa chinensis” value [2] was “A (Fresh weight inhibition rate≥80% to 100%)”.

For Cc1nnc(NC(=O)c2ccc(S(C)(=O)=O)c([S+]([O-])CC(F)(F)C(F)(F)F)c2Cl)o1 (racemic) [Compound 3-173], the “Control efficacy grade, Leptochloa chinensis” value [2] was “A (Fresh weight inhibition rate≥80% to 100%)”.

For CCc1nnc(NC(=O)c2ccc(S(C)(=O)=O)c(S(=O)(=O)CCCl)c2Cl)o1 [Compound 3-498], the “Control efficacy grade, Leptochloa chinensis” value [2] was “A (Fresh weight inhibition rate≥80% to 100%)”.

With CCCC[S+]([O-])c1c(S(C)(=O)=O)ccc(C(=O)N(C)c2nnc(C)o2)c1Cl (racemic) [Compound 3-815] the “Control efficacy grade, Echinochloa crusgalli” value [4] was “B (Fresh weight inhibition rate≥260% to <80%)”.

For CCc1nnc(NC(=O)c2ccc(S(C)(=O)=O)c(S(=O)(=O)CC(C)C)c2Cl)o1 [Compound 3-413], the “Control efficacy grade, Eclipta prostrata” value [1] was “A (Fresh weight inhibition rate≥80% to 100%)”, the “Control efficacy grade, Cyperus iria” value [3] was “A (Fresh weight inhibition rate≥80% to 100%)” and the “Control efficacy grade, Leptochloa chinensis” value [2] was “A (Fresh weight inhibition rate≥80% to 100%)”.

With Cc1nonc1NC(=O)c1ccc(S(C)(=O)=O)c(SC(C)C)c1Cl [Compound 4-6] the “Control efficacy grade, Leptochloa chinensis” value [2] was “A (Fresh weight inhibition rate≥80% to 100%)”.

For CCC[S+]([O-])c1c(S(C)(=O)=O)ccc(C(=O)N(C)c2ncnn2C)c1Cl (racemic) [Compound 2-78], the “Control efficacy grade, Echinochloa crusgalli” value [4] was “A (Fresh weight inhibition rate≥80% to 100%)”.

With CC(C)c1nnc(NC(=O)c2ccc(S(C)(=O)=O)c([S+]([O-])C(C)C)c2Cl)o1 (racemic) [Compound 3-505] the “Control efficacy grade, Eclipta prostrata” value [1] was “A (Fresh weight inhibition rate≥80% to 100%)”, the “Control efficacy grade, Cyperus iria” value [3] was “A (Fresh weight inhibition rate≥80% to 100%)” and the “Control efficacy grade, Leptochloa chinensis” value [2] was “A (Fresh weight inhibition rate≥80% to 100%)”.

For CC(C)c1nnc(N(C)C(=O)c2ccc(S(C)(=O)=O)c([S+]([O-])C(C)C)c2Cl)o1 (racemic) [Compound 3-808], the “Control efficacy grade, Echinochloa crusgalli” value [4] was “B (Fresh weight inhibition rate≥260% to <80%)”.

Molecule CCC[S+]([O-])c1c(S(C)(=O)=O)ccc(C(=O)N(C)c2nonc2C)c1Cl (stereo not shown) [Compound 4-272, 2-chloro-N-methyl-N-(4-methyl-1,2,5-oxadiazol-3-yl)-4-(methylsulfonyl)-3-(propylsulfinyl)benzamide] has a pest or weed control at 150 g/ha [1] of 80 to 100% and a pest or weed control at 150 g/ha [3] of 80 to 100%.

For C#CC[S+]([O-])c1c(S(C)(=O)=O)ccc(C(=O)Nc2nnc(C)o2)c1Cl (racemic) [Compound 3-148], the “Control efficacy grade, Leptochloa chinensis” value [2] was “A (Fresh weight inhibition rate≥80% to 100%)”.

CCCCS(=O)(=O)c1c(S(C)(=O)=O)ccc(C(=O)Nc2nnco2)c1Cl [Compound 3-281] was tested, and the “Control efficacy grade, Eclipta prostrata” value [1] was “A (Fresh weight inhibition rate≥80% to 100%)”, the “Control efficacy grade, Cyperus iria” value [3] was “A (Fresh weight inhibition rate≥80% to 100%)” and the “Control efficacy grade, Leptochloa chinensis” value [2] was “A (Fresh weight inhibition rate≥80% to 100%)”.

Cc1nnc(NC(=O)c2ccc(S(C)(=O)=O)c([S+]([O-])CCC#N)c2Cl)o1 (racemic) [Compound 3-198] was tested, and the “Control efficacy grade, Eclipta prostrata” value [1] was “A (Fresh weight inhibition rate≥80% to 100%)”, the “Control efficacy grade, Cyperus iria” value [3] was “A (Fresh weight inhibition rate≥80% to 100%)” and the “Control efficacy grade, Leptochloa chinensis” value [2] was “A (Fresh weight inhibition rate≥80% to 100%)”.

With Cc1nonc1NC(=O)c1ccc(S(C)(=O)=O)c(S(=O)(=O)CC2CC2)c1Cl [Compound 4-36, 2-chloro-3-((cyclopropylmethyl)sulfonyl)-N-(4-methyl-1,2,5-oxadiazol-3-yl)-4-(methylsulfonyl)benzamide] the pest or weed control at 150 g/ha [3] was 80 to 100%.

CCCSc1c(S(C)(=O)=O)ccc(C(=O)Nc2nnc(C(C)C)o2)c1Cl [Compound 3-499, 2-chloro-N-(5-isopropyl-1,3,4-oxadiazol-2-yl)-4-(methylsulfonyl)-3-(propylthio)benzamide] showed a pest or weed control at 150 g/ha [3] of 80 to 100%.

In the case of Cc1nnc(NC(=O)c2ccc(S(C)(=O)=O)c(SCc3ccccc3)c2Cl)o1 [Compound 3-67], the “Control efficacy grade, Cyperus iria” value [3] is reported as “A (Fresh weight inhibition rate≥80% to 100%)”.

Molecule CCCS(=O)(=O)c1c(S(C)(=O)=O)ccc(C(=O)Nc2nonc2C)c1Cl [Compound 4-5, 2-chloro-N-(4-methyl-1,2,5-oxadiazol-3-yl)-4-(methylsulfonyl)-3-(propylsulfonyl)benzamide] has a pest or weed control at 150 g/ha [1] of 80 to 100% and a pest or weed control at 150 g/ha [3] of 80 to 100%.

For CCCCS(=O)(=O)c1c(S(C)(=O)=O)ccc(C(=O)Nc2nnc(CC)o2)c1Cl [Compound 3-397], the “Control efficacy grade, Eclipta prostrata” value [1] was “A (Fresh weight inhibition rate≥80% to 100%)” and the “Control efficacy grade, Cyperus iria” value [3] was “A (Fresh weight inhibition rate≥80% to 100%)”.

CCC(C)[S+]([O-])c1c(S(C)(=O)=O)ccc(C(=O)Nc2nonc2C)c1Cl (mixture of isomers) [Compound 4-19] was tested, and the “Control efficacy grade, Eclipta prostrata” value [1] was “A (Fresh weight inhibition rate≥80% to 100%)”, the “Control efficacy grade, Cyperus iria” value [3] was “A (Fresh weight inhibition rate≥80% to 100%)” and the “Control efficacy grade, Leptochloa chinensis” value [2] was “A (Fresh weight inhibition rate≥80% to 100%)”.

In the case of CS(=O)(=O)c1ccc(C(=O)Nc2nnco2)c(Cl)c1S(=O)(=O)CCCl [Compound 3-382], the “Control efficacy grade, Leptochloa chinensis” value [2] is reported as “A (Fresh weight inhibition rate≥80% to 100%)”.

With CCC(C)Sc1c(S(C)(=O)=O)ccc(C(=O)Nc2nonc2C)c1Cl (racemic) [Compound 4-16] the “Control efficacy grade, Cyperus iria” value [3] was “A (Fresh weight inhibition rate≥80% to 100%)”.

Cc1nonc1NC(=O)c1ccc(S(C)(=O)=O)c(SCC2CC2)c1Cl [Compound 4-32, 2-chloro-3-((cyclopropylmethyl)thio)-N-(4-meth 1-1,2,5-oxadiazol-3-yl)-4-(methylsulfonyl)benzamide] showed a pest or weed control at 150 g/ha [3] of 80 to 100%.

Cc1nnc(NC(=O)c2ccc(S(C)(=O)=O)c(SC3CCCCC3)c2Cl)o1 [Compound 3-92] was tested, and the “Control efficacy grade, Cyperus iria” value [3] was “A (Fresh weight inhibition rate≥80% to 100%)”.

With C=CCSc1c(S(C)(=O)=O)ccc(C(=O)Nc2nnc(C(C)C)o2)c1Cl [Compound 3-570] the “Control efficacy grade, Eclipta prostrata” value [1] was “A (Fresh weight inhibition rate≥80% to 100%)”, the “Control efficacy grade, Cyperus iria” value [3] was “A (Fresh weight inhibition rate≥80% to 100%)” and the “Control efficacy grade, Leptochloa chinensis” value [2] was “B (Fresh weight inhibition rate≥260% to <80%)”.
